Results taken from ChEMBL document CHEMBL1153753, “Structure-activity relationships and mechanism of action of antitumor bis 8-hydroxyquinoline substituted benzylamines” (Eur J Med Chem, 2010).
Active and inactive are the calls of the source. The rule behind the calls is not given here.

Experiments:
[1] = Disregulation of endoplasmic reticulum stress responsive gene expression in human U87 cells assessed as change in ATF3 mRNA level at 0.5 uM after 16 hrs by microarray analysis relative to untreated control; assay type: functional, cell-based; conditions: U-87MG ATCC
[2] = Disregulation of apoptosis related gene expression in human U87 cells assessed as change in IGFBP3 mRNA level at 0.5 uM after 16 hrs by microarray analysis relative to untreated control; assay type: functional, cell-based; conditions: U-87MG ATCC
[3] = Disregulation of inflammation related gene expression in human U87 cells assessed as change in IL8 mRNA level at 0.5 uM after 16 hrs by microarray analysis relative to untreated control; assay type: functional, cell-based; conditions: U-87MG ATCC
[4] = Disregulation of DNA-damage and oxidative stress responsive gene expression in human U87 cells assessed as change in SESN2 mRNA level at 0.5 uM after 3 hrs by microarray analysis relative to untreated control; assay type: functional, U-87MG ATCC
[5] = Disregulation of cell development related gene expression in human U87 cells assessed as change in HQXB9 mRNA level at 0.5 uM after 16 hrs by microarray analysis relative to untreated control; assay type: functional, cell-based; conditions: U-87MG ATCC
[6] = Disregulation of apoptosis related gene expression in human U87 cells assessed as change in E2F1 mRNA level at 0.5 uM after 16 hrs by microarray analysis relative to untreated control; assay type: functional, cell-based; conditions: U-87MG ATCC
[7] = Disregulation of endoplasmic reticulum stress responsive gene expression in human U87 cells assessed as change in ARN1 mRNA level at 0.5 uM after 16 hrs by microarray analysis relative to untreated control; assay type: functional, cell-based; conditions: U-87MG ATCC
[8] = Disregulation of cell development related gene expression in human U87 cells assessed as change in PRPX1 mRNA level at 0.5 uM after 16 hrs by microarray analysis relative to untreated control; assay type: functional, cell-based; conditions: U-87MG ATCC
[9] = Cytotoxicity against human KB3 cells after 72 hrs by MTS assay; assay type: functional; conditions: KB3, 72 h
[10] = Disregulation of inflammation related gene expression in human U87 cells assessed as change in IL1F5 mRNA level at 0.5 uM after 16 hrs by microarray analysis relative to untreated control; assay type: functional, cell-based; conditions: U-87MG ATCC

Cc1ccc(CN(Cc2ccc(O)c3ncccc23)Cc2ccc(O)c3ncccc23)cc1
Activity [1]: Active | fold change (FC) [2]: 3 | fold change (FC) [3]: 3 | fold change (FC) [4]: >1.4 | fold change (FC) [5]: 3 | fold change (FC) [6]: 3 | fold change (FC) [7]: 3 | fold change (FC) [8]: 3 | CC50 [9]: 3 nM | fold change (FC) [10]: 3
